Columns and labels:
[1] = target: T1, SPARSA (GsSir2/pAgo heterodimer) (Geobacter sulfurreducens, UniProt Q74DF6); test: NADase assay, residual NAD+ by NAD/NADH quantitation kit (absorbance […] nm); assay type: biochemical; conditions: 1 uM SPARSA, 10 uM NAD+, 2 uM gRNA and tDNA (required for activity), 10 mM HEPES pH 7.5, 125 mM KCl, 37 C
T1 construct: gene GSU1360; full-length GsSir2 and pAgo coexpressed in E. coli BL21(DE3); 6xHis-SPARSA (also His-SUMO version, SUMO cut by TEV); 1:1 heterodimer; with Short prokaryotic Argonaute (Piwi domain-containing protein)
T1 sequence (Q74DF6 1-587): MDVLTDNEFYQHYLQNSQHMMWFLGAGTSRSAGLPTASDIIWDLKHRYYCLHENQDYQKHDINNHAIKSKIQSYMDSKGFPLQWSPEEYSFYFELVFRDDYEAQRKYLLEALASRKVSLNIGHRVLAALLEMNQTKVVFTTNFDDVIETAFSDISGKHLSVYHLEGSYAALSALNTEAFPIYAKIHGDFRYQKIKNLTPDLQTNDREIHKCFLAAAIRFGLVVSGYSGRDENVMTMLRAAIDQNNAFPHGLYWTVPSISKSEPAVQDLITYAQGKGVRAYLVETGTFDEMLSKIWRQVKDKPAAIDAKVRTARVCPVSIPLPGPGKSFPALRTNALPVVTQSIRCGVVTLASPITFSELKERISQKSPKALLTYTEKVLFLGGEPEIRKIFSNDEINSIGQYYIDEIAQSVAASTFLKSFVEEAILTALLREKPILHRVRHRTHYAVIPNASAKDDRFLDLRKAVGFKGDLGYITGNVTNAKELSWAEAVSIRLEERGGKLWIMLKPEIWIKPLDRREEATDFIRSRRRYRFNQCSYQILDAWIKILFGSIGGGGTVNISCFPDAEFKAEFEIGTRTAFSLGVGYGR
T1 sequence (Q74DF5 1-473 partner): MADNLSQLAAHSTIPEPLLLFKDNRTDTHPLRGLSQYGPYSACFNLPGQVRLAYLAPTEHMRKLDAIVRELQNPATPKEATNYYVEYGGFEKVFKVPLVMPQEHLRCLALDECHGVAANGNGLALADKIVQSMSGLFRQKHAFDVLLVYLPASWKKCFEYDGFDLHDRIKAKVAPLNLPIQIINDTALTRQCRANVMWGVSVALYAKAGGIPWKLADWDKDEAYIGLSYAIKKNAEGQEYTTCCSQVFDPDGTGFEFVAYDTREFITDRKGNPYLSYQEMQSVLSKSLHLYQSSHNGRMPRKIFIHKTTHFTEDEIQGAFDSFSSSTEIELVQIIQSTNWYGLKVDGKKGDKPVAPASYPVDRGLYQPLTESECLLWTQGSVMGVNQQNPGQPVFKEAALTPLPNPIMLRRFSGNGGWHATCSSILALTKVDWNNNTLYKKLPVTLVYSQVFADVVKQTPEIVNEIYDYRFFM

[2] = target: T1, SPARSA (GsSir2/pAgo heterodimer); test: cryo-EM structures ([…] A without, […] A with gRNA/tDNA); assay type: binding; conditions: endogenous NAD+ copurified; bound in Sir2 domain cleft between Rossmann fold and small domain, near N142 and H186; seen without and with gRNA/tDNA

Compound: NC(=O)c1ccc[n+]([C@@H]2O[C@H](COP(=O)([O-])OP(=O)(O)OC[C@H]3O[C@@H](n4cnc5c(N)ncnc54)[C@H](O)[C@@H]3O)[C@@H](O)[C@H]2O)c1 [NAD^+]
- NADase assay, residual NAD+ by NAD/NADH quantitation kit (absorbance 450 nm) [1]: nearly no NAD^+ remained in the wild-type SPARSA
- cryo-EM structures (3.6 A without, 3.1 A with gRNA/tDNA) [2]: a density within the crevice near the catalytic residues N142 and H186 was observed

From publication PMC10781750, “Structural basis of antiphage immunity generated by a prokaryotic Argonaute-associated SPARSA system” (Nature Communications, 2024)
